From PubChem BioAssay AID256 (DTP/NCI, 2004)
Several values for one entry are separate records, joined by “and”; a condition that tells them apart may be missing. Equal entries are not always repeated. Inconclusive results and toxic doses are left out. Rule for the calls: active = survival T/C of 150% or more; inactive = T/C below 125% in these data.

System: CD2F1 mice, L1210 leukemia ip, survival T/C
Assay: NCI In Vivo Anticancer Drug Screen. Data for tumor model L1210 Leukemia (intraperitoneal) in CD2F1 (CDF1) mice
Settings: higher = longer survival
Procedure, shortened: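 Vehicle-treated tumor-bearing mice served as controls (C) for compound-treated mice (T). Reported figure is T divided by C.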

[1] = endpoint: mean survival time, dose: 100.0 mg/kg/injection, schedule: Q04DX003 (ip), vehicle: saline with Tween-80
[2] = endpoint: mean survival time, dose: 200.0 mg/kg/injection, schedule: Q04DX003 (ip), vehicle: saline with Tween-80
[3] = endpoint: mean survival time, dose: 400.0 mg/kg/injection, schedule: Q04DX003 (ip), vehicle: saline with Tween-80
[4] = endpoint: mean survival time, dose: 25.0 mg/kg/injection, schedule: Q01DX001 (ip), vehicle: saline
[5] = endpoint: mean survival time, dose: 100.0 mg/kg/injection, schedule: Q04DX003 (ip), vehicle: saline sonified
[6] = endpoint: mean survival time, dose: 100.0 mg/kg/injection, schedule: Q01DX001 (ip), vehicle: saline
[7] = endpoint: mean survival time, dose: 200.0 mg/kg/injection, schedule: Q01DX001 (ip), vehicle: saline
[8] = endpoint: mean survival time, dose: 100.0 mg/kg/injection, schedule: Q01DX001 (ip), vehicle: saline with Tween-80
[9] = endpoint: mean survival time, dose: 200.0 mg/kg/injection, schedule: Q01DX001 (ip), vehicle: saline with Tween-80
[10] = endpoint: mean survival time, dose: 400.0 mg/kg/injection, schedule: Q01DX001 (ip), vehicle: saline with Tween-80
[11] = endpoint: mean survival time, dose: 100.0 mg/kg/injection, schedule: Q04DX003 (ip), vehicle: saline
[12] = endpoint: mean survival time, dose: 200.0 mg/kg/injection, schedule: Q04DX003 (ip), vehicle: saline
[13] = endpoint: mean survival time, dose: 400.0 mg/kg/injection, schedule: Q04DX003 (ip), vehicle: saline
[14] = endpoint: mean survival time, dose: 100.0 mg/kg/injection, schedule: Q01DX009 (ip), vehicle: saline with Tween-80
[15] = endpoint: mean survival time, dose: 200.0 mg/kg/injection, schedule: Q01DX009 (ip), vehicle: saline with Tween-80
[16] = endpoint: mean survival time, dose: 400.0 mg/kg/injection, schedule: Q01DX009 (ip), vehicle: saline with Tween-80
[17] = endpoint: mean survival time, dose: 25.0 mg/kg/injection, schedule: Q01DX009 (ip), vehicle: saline with Tween-80
[18] = endpoint: mean survival time, dose: 50.0 mg/kg/injection, schedule: Q01DX009 (ip), vehicle: saline with Tween-80

Measured: T/C

COC(=O)C(Cc1cnc[nH]1)NC(=O)c1ccccc1 (stereo not given)
inactive: [1] 103 % of control | [2] 104 % of control | [3] 97 % of control

COc1ccc(C(=O)CC(=O)NC(=O)c2ccc(OC)cc2)cc1
inactive: endpoint: mean survival time, dose: 100.0 mg/kg/injection, schedule: Q01DX001 (ip), vehicle: other 96 % of control | endpoint: mean survival time, dose: 200.0 mg/kg/injection, schedule: Q01DX001 (ip), vehicle: other 97 % of control | endpoint: mean survival time, dose: 400.0 mg/kg/injection, schedule: Q01DX001 (ip), vehicle: other 96 % of control

COc1cc2c(cc1OC)C1CC(=O)CCN1CC2 (stereo not given)
inactive: endpoint: mean survival time, dose: 12.5 mg/kg/injection, schedule: Q01DX009 (ip), vehicle: Klucel (hydroxypropylcellulose) (HPC) 97 % of control and 104 % of control | endpoint: mean survival time, dose: 25.0 mg/kg/injection, schedule: Q01DX009 (ip), vehicle: Klucel (hydroxypropylcellulose) (HPC) 97 % of control and 98 % of control | endpoint: mean survival time, dose: 50.0 mg/kg/injection, schedule: Q01DX009 (ip), vehicle: Klucel (hydroxypropylcellulose) (HPC) 95 % of control and 98 % of control | endpoint: mean survival time, dose: 100.0 mg/kg/injection, schedule: Q01DX009 (ip), vehicle: Klucel (hydroxypropylcellulose) (HPC) 97 % of control and 100 % of control | endpoint: median survival time, dose: 12.5 mg/kg/injection, schedule: Q01DX009 (ip), vehicle: Klucel (hydroxypropylcellulose) (HPC) 97 % of control | endpoint: median survival time, dose: 25.0 mg/kg/injection, schedule: Q01DX009 (ip), vehicle: Klucel (hydroxypropylcellulose) (HPC) 94 % of control | endpoint: median survival time, dose: 50.0 mg/kg/injection, schedule: Q01DX009 (ip), vehicle: Klucel (hydroxypropylcellulose) (HPC) 92 % of control | endpoint: median survival time, dose: 100.0 mg/kg/injection, schedule: Q01DX009 (ip), vehicle: Klucel (hydroxypropylcellulose) (HPC) 101 % of control

N#CCCn1c2ccccc2c2ccccc21
inactive: [1] 98 % of control | [2] 94 % of control | [3] 94 % of control

CC(CC(C)O)=NCCN=C(C)CC(C)O.[Ni] (stereo not given)
inactive: endpoint: mean survival time, dose: 1.5 mg/kg/injection, schedule: Q01DX009 (ip), vehicle: saline with Tween-80 103 % of control | endpoint: mean survival time, dose: 3.0 mg/kg/injection, schedule: Q01DX009 (ip), vehicle: saline with Tween-80 101 % of control | endpoint: mean survival time, dose: 6.0 mg/kg/injection, schedule: Q01DX009 (ip), vehicle: saline with Tween-80 105 % of control | endpoint: mean survival time, dose: 12.5 mg/kg/injection, schedule: Q01DX001 (ip), vehicle: saline 102 % of control | [4] 112 % of control

CC([NH-])C(=O)O.[Cl][Pt][Cl] (stereo not given)
inactive: endpoint: mean survival time, dose: 25.0 mg/kg/injection, schedule: Q04DX003 (ip), vehicle: saline 121 % of control | endpoint: mean survival time, dose: 50.0 mg/kg/injection, schedule: Q04DX003 (ip), vehicle: saline 110 % of control

Clc1nc(Cl)c(Nc2ccn[nH]2)nc1Cl
inactive: [5] 100 % of control | endpoint: mean survival time, dose: 200.0 mg/kg/injection, schedule: Q04DX003 (ip), vehicle: saline sonified 98 % of control | endpoint: mean survival time, dose: 400.0 mg/kg/injection, schedule: Q04DX003 (ip), vehicle: saline sonified 95 % of control

C=CCSc1ccccn1
inactive: endpoint: mean survival time, dose: 50.0 mg/kg/injection, schedule: Q01DX001 (ip), vehicle: carboxymethylcellulose (CMC) 94 % of control | endpoint: mean survival time, dose: 100.0 mg/kg/injection, schedule: Q01DX001 (ip), vehicle: carboxymethylcellulose (CMC) 86 % of control | endpoint: mean survival time, dose: 200.0 mg/kg/injection, schedule: Q01DX001 (ip), vehicle: carboxymethylcellulose (CMC) 88 % of control | endpoint: mean survival time, dose: 400.0 mg/kg/injection, schedule: Q01DX001 (ip), vehicle: carboxymethylcellulose (CMC) 94 % of control

CN(C(=O)Nc1ccc([N+](=O)[O-])cc1)c1ccccc1
inactive: [6] 96 % of control | [7] 98 % of control | endpoint: mean survival time, dose: 400.0 mg/kg/injection, schedule: Q01DX001 (ip), vehicle: saline 102 % of control

CC1CC(O)C(NC(=O)NCCCl)C(O)C1 (stereo not given)
inactive: [8] 102 % of control | [9] 102 % of control | [10] 110 % of control

CC(=O)CC(C)=O.CC(=O)CC(C)=O.CC(=O)CC(C)=O.CC(=O)CC(C)=O.[Hf]
inactive: [1] 86 % of control | [2] 94 % of control

COC(=O)C(C)=O
inactive: [11] 97 % of control | [12] 100 % of control | [13] 102 % of control

COc1ccccc1C1(O)c2ccccc2Sc2cccc(OC)c21 (stereo not given)
inactive: [14] 86 % of control | [15] 89 % of control | [16] 94 % of control

C(#[C][Ge]([C]#Cc1ccccc1)([C]#Cc1ccccc1)[C]#Cc1ccccc1)c1ccccc1
inactive: [17] 91 % of control | [18] 88 % of control | [14] 96 % of control | [15] 90 % of control

Cc1ccc([N+](=O)[O-])cc1NC(=O)NNC(=O)CNC(=O)Nc1ccc(F)cc1
inactive: [15] 87 % of control | [16] 92 % of control

CC(=O)CC(=O)Nc1ccc(N=Nc2ccccc2)cc1
inactive: [14] 101 % of control | [15] 101 % of control

CC(=O)OCC(OC(C)=O)C(OC(C)=O)C(OC(C)=O)C(OC(C)=O)OC(C)=O (stereo not given)
inactive: [8] 94 % of control | [9] 96 % of control | [10] 96 % of control

O=C1c2ccccc2C(=O)N1CCCCN1C(=O)c2ccccc2C1=O
inactive: [8] 90 % of control | [9] 87 % of control | [10] 90 % of control

CC1=CCC(O)(C(C)C)CC1 (stereo not given)
inactive: [11] 96 % of control | [12] 98 % of control | [13] 102 % of control

COc1cc(C2c3cc4c(cc3C(O)C(CO)C2CO)OCO4)cc(OC)c1OC (stereo not given)
inactive: endpoint: mean survival time, dose: 12.5 mg/kg/injection, schedule: Q01DX009 (ip), vehicle: saline with Tween-80 97 % of control | [17] 97 % of control | [18] 102 % of control | [14] 106 % of control | [5] 107 % of control | endpoint: mean survival time, dose: 150.0 mg/kg/injection, schedule: Q04DX003 (ip), vehicle: saline sonified 114 % of control | endpoint: mean survival time, dose: 225.0 mg/kg/injection, schedule: Q04DX003 (ip), vehicle: saline sonified 108 % of control | [16] 122 % of control

CCCCS(=O)CC(CO)NC(=O)/C=C/c1c(C)[nH]c(=O)[nH]c1=O (stereo not given)
inactive: endpoint: mean survival time, dose: 0.63 mg/kg/injection, schedule: Q01DX009 (ip), vehicle: water 115 % of control and 105 % of control | endpoint: mean survival time, dose: 1.25 mg/kg/injection, schedule: Q01DX009 (ip), vehicle: water 112 % of control | endpoint: mean survival time, dose: 2.5 mg/kg/injection, schedule: Q01DX009 (ip), vehicle: water 118 % of control and 121 % of control | endpoint: mean survival time, dose: 5.0 mg/kg/injection, schedule: Q01DX009 (ip), vehicle: water 116 % of control | endpoint: mean survival time, dose: 10.0 mg/kg/injection, schedule: Q01DX009 (ip), vehicle: water 98 % of control

C=C(C)/C([O-])=N/[N+](C)(C)CC(O)CCCCCCCCCCCC (stereo not given)
inactive: [4] 96 % of control and 97 % of control | endpoint: mean survival time, dose: 50.0 mg/kg/injection, schedule: Q01DX001 (ip), vehicle: saline 97 % of control and 100 % of control | [18] 94 % of control | [6] 96 % of control and 97 % of control | [14] 94 % of control | [7] 93 % of control and 100 % of control | [15] 97 % of control

CCN(C(=O)Nc1ccccc1Cl)c1ccccc1
inactive: endpoint: mean survival time, dose: 75.0 mg/kg/injection, schedule: Q04DX003 (ip), vehicle: saline with Tween-80 102 % of control | endpoint: mean survival time, dose: 150.0 mg/kg/injection, schedule: Q04DX003 (ip), vehicle: saline with Tween-80 101 % of control | endpoint: mean survival time, dose: 300.0 mg/kg/injection, schedule: Q04DX003 (ip), vehicle: saline with Tween-80 98 % of control
